Source: PMC6973020, “Quinoline‐Conjugated Ruthenacarboranes: Toward Hybrid Drugs with a Dual Mode of Action” (Chemmedchem, 2019)
Values joined by “and” are separate entries in the source; they are usually repeats but may differ in a detail not shown here. Equal values may be shown once.

Experiments:
[1] = Nanoparticle Tracking Analysis (NTA) in PBS/DMSO, with and without BSA; format: physicochemical; settings: PBS, without BSA, 20 μM, 25 °C
Experimental: Nanoparticle Tracking Analysis (NTA). 3 and 4 were analyzed via NTA to study the modulation of self‐assembly behavior in PBS/DMSO mixture (pH 7.4), with and without BSA, in an analogous way as described previously.9 Samples of 3 and 4 in PBS/DMSO were prepared as described above for UV‐vis measurements. The solutions were measured 30 min after preparation. Samples of BSA−3 and BSA−4 were prepared with two different BSA:ruthenacarborane ratios, namely 10 : 1 and 1 : 1. Stock solutions of BSA in PBS ([BSA]PBS=1.128 mM) were diluted to final concentrations of 200 or 20 μM with PBS (Vfin=5 mL), then an aliquot of the stock solution of 3 or 4 was added, so that the final concentration of metallacarborane was 20 μM. Content of DMSO was adjusted to 1 vol % (considering the amount of DMSO from the stock solutions) before addition of the ruthenacarborane, in all samples. The solutions of BSA−ruthenacarborane were measured 3.5–6 h after preparation. BSA alone in PBS/DMSO was also measured, as blank, using the same capture and processing parameters as for the respective BSA−metallacarborane samples, for direct comparison. All NTA measurements were performed at 25±0.1 °C. Each sample was measured in five independent captures. The time of each capture was set to 60 s.

B16 mouse melanoma = assay: MTT cell viability assay, B16; format: cell-based; settings: 72 h
Excerpt: (§1) Thus, care must be taken when comparing their biological activities with those of our previous studies, even with the same cell line, because the covalent vs. non‐covalent combination of drugs might imply different mechanisms of action in the cell.44 Here, we studied the in vitro activity of ruthenacarborane 3, i. e. free acid, and its 8‐hydroxyquinolyl (4) and 4‐{(7‐chloroquinolin‐4‐yl)oxy}butanol‐1‐yl (5) esters, against a panel of cancer cell lines (B16 mouse melanoma, A375 human skin melanoma, MCF‐7 human breast adenocarcinoma, LN229 human glioblastoma, U251 human glioma). Human fibroblast cell line MRC‐5, murine microglial cell line BV‐2 as well as peritoneal exudate cells (Mph), were chosen as models for non‐malignant cells. […] On the other side, we wanted to assess the reproducibility of the viability data, under either controlled (with BSA) or uncontrolled (without BSA) conditions, in two sets of independent assays. […] Cells were exposed to 3–5 for 72 h, after which cell viability was determined via 3‐(4,5‐dimethylthiazol‐2‐yl)‐2,5‐diphenyltetrazolium bromide (MTT) and crystal violet (CV) assays, in parallel (Table 2). Cisplatin was also tested as reference.
(§2) Preparation of drug solutions. […] Stock solution of cisplatin was prepared in DMF (10 mM) immediately before use. A stock solution of BSA in PBS was prepared at 1.28 mM concentration, and stored at 4 °C in the dark. […] Alternatively, 3 or 4 (DMSO stock solution) were added to the BSA solution in PBS, always with a 10 : 1 molar ratio of BSA to ruthenacarborane. The BSA−ruthenacarborane solutions were incubated 0.5–1 h at room temperature, then diluted with cell culture medium to the desired final concentrations. Final concentrations of 3 and 4 were the same as for the BSA‐free formulation. Final DMSO was 0.02–0.5 vol %.
(§3) Colorimetric assays for cellular viability. […] For counting the number of attached (viable) cells, cells were fixed with 4 % (w/v) paraformaldehyde for 10 min at room temperature, and subsequently stained for 15 min with […] crystal violet (CV) solution. Cells were then washed with tap water, dried in air, and the CV dye was dissolved in 33 % (w/v) acetic acid solution. For the detection of mitochondrial respiration, cells were cultivated in MTT staining solution (0.5 mg mL^−1) for approximately 1 h. The dye was then discarded, and the formed formazan (purple) was dissolved in DMSO. The absorbance was measured with an automated microplate reader at λmax 540 nm, with the reference λmax 670 nm. Untreated cells or cells treated only with BSA (control) were also measured, as reference for BSA‐free and BSA‐containing drug formulations, respectively. […] Cell viability is expressed as percentage (%) relative to control (untreated cultures).58 Experiments were run in three independent replicates. […]

LN229 human glioblastoma [2] = assay: Crystal violet (CV) cell viability assay, LN229; format: cell-based; settings: CV assay, 72 h; read-out: IC50 LN229
Excerpt: as §1, §2
Colorimetric assays for cellular viability. […] For counting the number of attached (viable) cells, cells were fixed with 4 % (w/v) paraformaldehyde for 10 min at room temperature, and subsequently stained for 15 min with […] crystal violet (CV) solution. Cells were then washed with tap water, dried in air, and the CV dye was dissolved in 33 % (w/v) acetic acid solution. For the detection of mitochondrial respiration, cells were cultivated in MTT staining solution (0.5 mg mL^−1) for approximately 1 h. The dye was then discarded, and the formed formazan (purple) was dissolved in DMSO. The absorbance was measured with an automated microplate reader at λmax 540 nm, with the reference λmax 670 nm. Untreated cells or cells treated only with BSA (control) were also measured, as reference for BSA‐free and BSA‐containing drug formulations, respectively. For determination of the role of autophagy specific inhibitors, CQ or 3‐MA, were applied at a concentration of 20 μM and 0.5 mM, respectively, and the cells were stained with CV dye. Cell viability is expressed as percentage (%) relative to control (untreated cultures).58 Experiments were run in three independent replicates. […] Non‐linear regression analyses of the obtained results was done using GraphPad Prism software to calculate IC50 values.
mouse microglial cell line BV‐2 was a kind gift from Dr. Irena Lavrnja, Institute for Biological Research
“Siniša Stanković” (University of Belgrade).

[3] = test system: primary non‐malignant mouse macrophages (Mph); assay: Crystal violet (CV) cell viability assay, peritoneal macrophages (Mph); format: cell-based; settings: 72 h
Excerpt: as §1
(§4) Preparation of drug solutions. […] Stock solution of cisplatin was prepared in DMF (10 mM) immediately before use. A stock solution of BSA in PBS was prepared at 1.28 mM concentration, and stored at 4 °C in the dark. […] Alternatively, 3 or 4 (DMSO stock solution) were added to the BSA solution in PBS, always with a 10 : 1 molar ratio of BSA to ruthenacarborane. […]
(§5) Colorimetric assays for cellular viability. […] The absorbance was measured with an automated microplate reader at λmax 540 nm, with the reference λmax 670 nm. Untreated cells or cells treated only with BSA (control) were also measured, as reference for BSA‐free and BSA‐containing drug formulations, respectively. […] Cell viability is expressed as percentage (%) relative to control (untreated cultures).58 Experiments were run in three independent replicates. […]

[4] = test system: Human fibroblast cell line MRC‐5; assay: Crystal violet (CV) cell viability assay, MRC‐5; format: cell-based; settings: 72 h
Excerpt: as §1, §4, §5

LN229 human glioblastoma [5] = assay: MTT cell viability assay, LN229; format: cell-based; settings: 72 h
Excerpt: as §1, §2, §3

[6] = test system: MCF‐7 human breast adenocarcinoma; assay: MTT cell viability assay, MCF‐7; format: cell-based; settings: 72 h
Excerpt: as §1, §2, §3

Row | Substance | concentration of self‐assemblies [1] | IC50 (B16 mouse melanoma) [µM] | IC50 (LN229 human glioblastoma [2]) [µM] | IC50 [3] | IC50 [4] [µM] | IC50 (LN229 human glioblastoma [5]) [µM] | IC50 [6] [µM]
1 | closo‐ [Compound 3, closo‐ [3‐(η^6‐p‐Cymene)‐1‐(CH2COOH)‐3,1,2‐RuC2B9H10]] | 10^6–10^7 particles mL^−1 | 19.4 ± 0.9 | 80 ± 7.7 | 49 µM and 49.1 µM | 58.5 ± 0.3 | 80.1 ± 4 | 7.7 ± 0.8
2 | closo ‐[3‐(η^6‐p‐Cymene)‐1‐(quinolin‐8‐yl‐acetate)‐3,1,2‐RuC2B9H10] [Compound 4] | 10^6–10^7 particles mL^−1 | 20.4 ± 2.1 | 33.4 ± 3.5 | 94 ± 7.7 µM | 4.9 ± 0.1 | 42.4 ± 3.9 | 15.9 ± 0.2
